Measured values: patent US20260034166A1, “HEPARIN COMPOSITIONS FOR TREATMENT OF LUNG DAMAGE AND METHODS OF USE THEREOF” (Atossa Therapeutics, Inc., priority 2022, published 2026)

Assays:
ciliary motility = details: cited from earlier work
[1] = aqueous solution at physiologic pH; cited from earlier work
[2] = Treatment of chemotherapy-induced lung damage using nebulized heparin and N-acetylcysteine; assay type: in vivo, human
Description: This example describes treatment of chemotherapy-induced lung damage using nebulized heparin and N-acetylcysteine. A patient with unresectable lung cancer, such as locally advanced or metastatic stage III/oligometastatic IV non-small cell lung carcinoma, who is undergoing chemotherapy therapy with bleomycin, carmustine, lomustine, busulfan, daunorubicin, doxorubicin, or idarubicin is administered nebulized enoxaparin via inhalation. The enoxaparin is purified to remove elemental impurities, as described in EXAMPLE 1, and formulated in water at a concentration of 100 mg/mL for a nebulized composition as described in EXAMPLE 2. A dose of either 0.5 mg enoxaparin per kg patient weight (mg/kg), 1 mg/kg, or 2 mg/kg of the aqueous enoxaparin formulation is nebulized and administered to the subject via inhalation every 12 hours for 14 days, followed by 14 days of no enoxaparin treatment. N-acetylcysteine is administered by inhalation via nebulization at 600 mg per dose 30 minutes after each dose of enoxaparin. The 28-day treatment cycle is repeated for up to 6 cycles in the absence of disease progression or unacceptable toxicity. The patient continues to receive best supportive care for the lung cancer (e.g., chemotherapy therapy) while undergoing enoxaparin treatment.
(§1) Additionally, the enoxaparin therapy may reduce the recurrence of the lung cancer by slowing cancer progression through inhibition of mutagenic proliferation, adhesion, angiogenesis, migration, and invasion of cancer cells.

[3] = Treatment of radiation-induced lung damage using nebulized enoxaparin and N-acetylcysteine; assay type: in vivo, human
Description: This example describes treatment of radiation-induced lung damage using nebulized enoxaparin and N-acetylcysteine. A patient with unresectable lung cancer, such as locally advanced or metastatic stage III/oligometastatic IV non-small cell lung carcinoma, who has received radiation therapy is administered nebulized enoxaparin via inhalation. The enoxaparin is purified to remove elemental impurities, as described in EXAMPLE 1, and formulated in water at a concentration of 100 mg/mL for a nebulized composition as described in EXAMPLE 2. A dose of either 0.5 mg enoxaparin per kg patient weight (mg/kg), 1 mg/kg, or 2 mg/kg of the aqueous enoxaparin formulation is nebulized and administered to the subject via inhalation every 12 hours for 14 days, followed by 14 days of no enoxaparin treatment. N-acetylcysteine is administered by inhalation via nebulization at 600 mg per dose 30 minutes after each dose of enoxaparin. The 28-day treatment cycle begins 4-6 weeks after completion of radiation therapy, and the treatment cycle is repeated for up to 6 cycles in the absence of disease progression or unacceptable toxicity. The patient continues to receive best supportive care for the lung cancer (e.g., chemotherapy therapy) while undergoing enoxaparin treatment.
as §1

[4] = same regimen, during chemotherapy
[5] = same regimen, after radiation therapy

2-alkyl-4-hydroxyquinolines [pyo compound]
concentration producing ciliostasis / inhibiting ciliary motility (ciliary motility; ciliostatic factors from Pseudomonas aeruginosa): 50 µg/mL

NCCN(CCN)/[N+]([O-])=N/O [diethylenetriamine/NO]
time scale of NO release [1]: approximately 20 hours

enoxaparin
development of chemotherapy-induced pneumonitis ([2]; patient with unresectable lung cancer undergoing chemotherapy, 0.5, 1 or 2 mg/kg inhaled every 12 hours for 14 days, N-acetylcysteine 600 mg after each dose): treats, prevents, or slows the development | airway inflammation [2, 4]: decreases airway inflammation | coagulation activation and pulmonary venous thromboembolism [2, 4]: prevents coagulation activation and pulmonary venous thromboembolism | release of inflammatory cytokines, such as IL-6 [2, 4]: inhibits release | development of radiation-induced pneumonitis ([3]; patient with unresectable lung cancer after radiation therapy, 0.5, 1 or 2 mg/kg inhaled every 12 hours for 14 days, N-acetylcysteine 600 mg after each dose): treats, prevents, or slows the development | airway inflammation [3, 5]: decreases airway inflammation | coagulation activation and pulmonary venous thromboembolism [3, 5]: prevents coagulation activation and pulmonary venous thromboembolism | release of inflammatory cytokines, such as IL-6 [3, 5]: inhibits release

rhamnolipid
effect on cilia (ciliary motility; limited exposure of tracheal explants): resulted in ciliostasis

CCN(CC)/[N+]([O-])=N/O.CCNCC [diethylamine/NO]
time scale of NO release [1]: < 3 min
